Data on eight molecules can be found in US11034650B2, “Compounds useful for treating a Mannheimia haemolytica or Histophilus somni infection” (Intervet Inc., priority 2016, dated 2021).

Holding throughout (format): cell-based
The subject of test [1] is Mannheimia haemolytica MH 6357 (M7/2, reference strain, cattle infection strain). As to the kind of experiment: MIC, broth-microdilution (CLSI VET01-A4), strain MH 6357. The following applies: Mannheimia haemolytica strain MH 6357, broth-microdilution; unit assumed. The essentials:
(§1)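 Using trays holding a doubling concentration series, the MIC is read as the minimal concentration with no eye-detectable growth.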
Background: Broth dilution looks for growth in wells or tubes with falling amounts of substance.

Test [2] deals with Mannheimia haemolytica MH 6374 (ATCC 33396, reference strain). As to the kind of experiment: MIC, broth-microdilution (CLSI VET01-A4), strain MH 6374. The following applies: Mannheimia haemolytica strain MH 6374, broth-microdilution; unit assumed. The essentials: as §1
Test [3] deals with Mannheimia haemolytica MH 10720 (154, BRD field isolate). As to the kind of experiment: MIC, broth-microdilution (CLSI VET01-A4), strain MH 10720. The following applies: Mannheimia haemolytica strain MH 10720, broth-microdilution; unit assumed. A digest of the protocol: as §1
In test [4] the test system is Mannheimia haemolytica MH 12587 (1071, BRD field isolate, macrolide-resistance: erm+, E+). As to the kind of experiment: MIC, broth-microdilution (CLSI VET01-A4), strain MH 12587. As to conditions: Mannheimia haemolytica strain MH 12587, broth-microdilution; unit assumed. The essentials:
as §1

Test [5] concerns Mannheimia haemolytica MH 13065 (XB0446-6003.9, BRD field isolate). As to the kind of experiment: MIC, broth-microdilution (CLSI VET01-A4), strain MH 13065. The following applies: Mannheimia haemolytica strain MH 13065, broth-microdilution; unit assumed. A digest of the protocol: as §1
Test [6] deals with Mannheimia haemolytica MH 13093 (XB0472-6014.1, BRD field isolate). Briefly: MIC, broth-microdilution (CLSI VET01-A4), strain MH 13093. The following applies: Mannheimia haemolytica strain MH 13093, broth-microdilution; unit assumed. The essentials: as §1
Test [7] has as its system Pasteurella multocida PM 6267 (P 2225 (L386), reference strain, mouse infection strain). As to the kind of experiment: MIC, broth-microdilution (CLSI VET01-A4), strain PM 6267. The following applies: Pasteurella multocida strain PM 6267, broth-microdilution; unit assumed. The essentials:
as §1

Test [8] has as its system Pasteurella multocida PM 6391 (ATCC 43137, reference strain). Briefly: MIC, broth-microdilution (CLSI VET01-A4), strain PM 6391. As to conditions: Pasteurella multocida strain PM 6391, broth-microdilution; unit assumed. A digest of the protocol:
as §1

Test [9] concerns Pasteurella multocida PM 10775 (080130003051, BRD field isolate). Briefly: MIC, broth-microdilution (CLSI VET01-A4), strain PM 10775. As to conditions: Pasteurella multocida strain PM 10775, broth-microdilution; unit assumed. The essentials:
as §1

The subject of test [10] is Pasteurella multocida PM 12080 (IV102277-0093, BRD field isolate). As to the kind of experiment: MIC, broth-microdilution (CLSI VET01-A4), strain PM 12080. As to conditions: Pasteurella multocida strain PM 12080, broth-microdilution; unit assumed. The essentials:
as §1

Values after ≈ are worked out from the molar mass of the structure shown.

For `CC(C)[C@H](NC(=O)c1ccc(C#Cc2ccc(CN3CCCCC3)cc2)cc1)C(=O)NO` [Compound 166], in test [1], the MIC MH 6357 is 3.1 µg/mL (≈ 7.15 µM). This molecule also had an MIC MH 6374 in test [2] of 6.3 µg/mL (≈ 14.5 µM). In [3], this molecule registered an MIC MH 10720 of 0.8 µg/mL (≈ 1.85 µM). In addition, the MIC MH 12587 in test [4] was 6.3 µg/mL (≈ 14.5 µM). Also, the MIC MH 13065 in test [5] is 6.3 µg/mL (≈ 14.5 µM). In test [6], the MIC MH 13093 was determined as 6.3 µg/mL (≈ 14.5 µM). The molecule further yielded an MIC PM 6267 in test [7] of 0.2 µg/mL (≈ 0.461 µM). The MIC PM 6391 in test [8] came out at 0.8 µg/mL (≈ 1.85 µM). For the same molecule, the MIC PM 10775 in [9] is not above 0.1 µg/mL. This molecule displayed an MIC PM 12080 in test [10] of 0.4 µg/mL (≈ 0.923 µM).

Turning to `CC(C)[C@H](NC(=O)c1ccc(C#Cc2ccc(CNCc3cccnc3)cc2)cc1)C(=O)NO` [Compound 167], the MIC MH 6357 in test [1] worked out at 0.4 µg/mL (≈ 0.876 µM). In [2], the MIC MH 6374 was 0.4 µg/mL (≈ 0.876 µM). The MIC MH 10720 in [3] was not above 0.1 µg/mL. This molecule also yielded an MIC MH 12587 in test [4] of 0.8 µg/mL (≈ 1.75 µM). The MIC MH 13065 in [5] turned out to be 0.8 µg/mL (≈ 1.75 µM). Besides, the MIC MH 13093 in test [6] stood at 0.8 µg/mL (≈ 1.75 µM). The MIC PM 6267 in test [7] was not above 0.1 µg/mL. This molecule also came in with an MIC PM 6391 in test [8] of 0.4 µg/mL (≈ 0.876 µM). In addition, the MIC PM 10775 in test [9] is not above 0.1 µg/mL. Also, the MIC PM 12080 in test [10] amounted to 0.2 µg/mL (≈ 0.438 µM).

Regarding `CC(C)[C@H](NC(=O)c1ccc(C#Cc2ccc(CNCc3ccnc(Cl)c3)cc2)cc1)C(=O)NO` [Compound 168], in test [1], the MIC MH 6357 came out at 0.4 µg/mL (≈ 0.815 µM). Moreover, the MIC MH 6374 in [2] came out at 0.8 µg/mL (≈ 1.63 µM). This molecule also registered an MIC MH 10720 in test [3] of 0.2 µg/mL (≈ 0.407 µM). In test [4], this molecule came in with an MIC MH 12587 of 1.6 µg/mL (≈ 3.26 µM). In [5], this molecule had an MIC MH 13065 of 0.8 µg/mL (≈ 1.63 µM). In [6], the MIC MH 13093 was 0.8 µg/mL (≈ 1.63 µM). The MIC PM 6267 in test [7] is not above 0.1 µg/mL. The molecule further registered an MIC PM 6391 in test [8] of 0.4 µg/mL (≈ 0.815 µM). The molecule further returned an MIC PM 10775 in [9] not above 0.1 µg/mL. The molecule also yielded an MIC PM 12080 in [10] of 0.2 µg/mL (≈ 0.407 µM).

The molecule `CC(C)[C@H](NC(=O)c1ccc(C#Cc2ccc(CNCc3ccccn3)cc2)cc1)C(=O)NO` [Compound 169] showed an MIC MH 6357 in test [1] of 0.4 µg/mL (≈ 0.876 µM). Moreover, in test [2], the MIC MH 6374 is 0.8 µg/mL (≈ 1.75 µM). Besides, in [3], the MIC MH 10720 came out at 0.2 µg/mL (≈ 0.438 µM). Also, the MIC MH 12587 in test [4] turned out to be 1.6 µg/mL (≈ 3.5 µM). In test [5], this molecule yielded an MIC MH 13065 of 0.8 µg/mL (≈ 1.75 µM). Further, the MIC MH 13093 in [6] was determined as 0.8 µg/mL (≈ 1.75 µM). This molecule also registered an MIC PM 6267 in [7] not above 0.1 µg/mL. Further, in test [8], the MIC PM 6391 stood at 0.4 µg/mL (≈ 0.876 µM). The MIC PM 10775 in [9] was not above 0.1 µg/mL. In addition, the MIC PM 12080 in test [10] worked out at 0.4 µg/mL (≈ 0.876 µM).

As to `CC(C)[C@H](NC(=O)c1ccc(C#Cc2ccc(CNCc3ccco3)cc2)cc1)C(=O)NO` [Compound 170], the MIC MH 6357 in [1] came to 0.2 µg/mL (≈ 0.449 µM). In [2], this molecule came in with an MIC MH 6374 of 0.4 µg/mL (≈ 0.898 µM). The same molecule yielded an MIC MH 10720 in test [3] not above 0.1 µg/mL. Besides, in [4], the MIC MH 12587 amounted to 0.4 µg/mL (≈ 0.898 µM). In [5], this molecule showed an MIC MH 13065 of 0.4 µg/mL (≈ 0.898 µM). The molecule further gave an MIC MH 13093 in test [6] of 0.4 µg/mL (≈ 0.898 µM). Besides, in test [7], the MIC PM 6267 was not above 0.1 µg/mL. For the same molecule, in [8], the MIC PM 6391 was 0.4 µg/mL (≈ 0.898 µM). Moreover, in test [9], the MIC PM 10775 is not above 0.1 µg/mL. Also, the MIC PM 12080 in test [10] turned out to be 0.2 µg/mL (≈ 0.449 µM).

The molecule `CC(C)[C@H](NC(=O)c1ccc(C#Cc2ccc(CNCc3cccs3)cc2)cc1)C(=O)NO` [Compound 171] showed an MIC MH 6357 in [1] of 0.2 µg/mL (≈ 0.433 µM). In [2], this molecule gave an MIC MH 6374 of 0.4 µg/mL (≈ 0.867 µM). The MIC MH 10720 in test [3] is not above 0.1 µg/mL. Further, the MIC MH 12587 in [4] was determined as 0.8 µg/mL (≈ 1.73 µM). The molecule further came in with an MIC MH 13065 in [5] of 0.2 µg/mL (≈ 0.433 µM). For the same molecule, the MIC MH 13093 in test [6] amounted to 0.4 µg/mL (≈ 0.867 µM). In [7], this molecule registered an MIC PM 6267 not above 0.1 µg/mL. The same molecule yielded an MIC PM 6391 in test [8] of 0.2 µg/mL (≈ 0.433 µM). For the same molecule, the MIC PM 10775 in [9] is not above 0.1 µg/mL. In addition, the MIC PM 12080 in test [10] is not above 0.1 µg/mL.

In turn, `Cc1ccc(CNCc2ccc(C#Cc3ccc(C(=O)N[C@H](C(=O)NO)C(C)C)cc3)cc2)cc1` [Compound 172] showed an MIC MH 6357 in [1] of 0.4 µg/mL (≈ 0.852 µM). The MIC MH 6374 in [2] was 0.8 µg/mL (≈ 1.7 µM). The MIC MH 10720 in test [3] turned out to be 0.4 µg/mL (≈ 0.852 µM). In addition, the MIC MH 12587 in test [4] was 1.6 µg/mL (≈ 3.41 µM). The same molecule returned an MIC MH 13065 in test [5] of 0.8 µg/mL (≈ 1.7 µM). In addition, the MIC MH 13093 in [6] came to 0.8 µg/mL (≈ 1.7 µM). In [7], this molecule registered an MIC PM 6267 of 0.2 µg/mL (≈ 0.426 µM). The molecule further registered an MIC PM 6391 in [8] of 0.4 µg/mL (≈ 0.852 µM). Besides, the MIC PM 10775 in [9] was not above 0.1 µg/mL. This molecule returned an MIC PM 12080 in test [10] of 0.4 µg/mL (≈ 0.852 µM).

`CC(C)[C@H](NC(=O)c1ccc(C#Cc2ccc(CNCc3ncc[nH]3)cc2)cc1)C(=O)NO` [Compound 173]: the MIC MH 6357 in test [1] was determined as 3.1 µg/mL (≈ 6.96 µM). In test [2], this molecule registered an MIC MH 6374 of 3.1 µg/mL (≈ 6.96 µM). For the same molecule, the MIC MH 10720 in test [3] was 0.8 µg/mL (≈ 1.8 µM). For the same molecule, in [4], the MIC MH 12587 was determined as 6.3 µg/mL (≈ 14.1 µM). Besides, in [5], the MIC MH 13065 came to 6.3 µg/mL (≈ 14.1 µM). For the same molecule, the MIC MH 13093 in test [6] was determined as 6.3 µg/mL (≈ 14.1 µM). Besides, the MIC PM 6267 in test [7] is not above 0.1 µg/mL. In addition, in [8], the MIC PM 6391 amounted to 0.8 µg/mL (≈ 1.8 µM). For the same molecule, the MIC PM 10775 in [9] is not above 0.1 µg/mL. Besides, the MIC PM 12080 in test [10] was 0.4 µg/mL (≈ 0.898 µM).
